Tested on: S. aureus ATCC 29213
Test: S. aureus neutropenic murine thigh infection model
Type: in vivo, mouse
Settings: for reduction in thighs: dosed as Debio 1453 P; for Mean Diff. 0h vs. treatment, log10 CFU: S. aureus ATCC 29213, daily dose
Description: The S. aureus neutropenic murine thigh infection model was performed in accordance with the Guide for Care and Use of Laboratory Animals[75]. Animal rooms were maintained at a temperature range of 20–24 °C and humidity between 30% and 70%, with 12 h light/dark cycles. Female ICR mice (BioLASCO Taiwan Co., Ltd.) were rendered neutropenic via IP injection of cyclophosphamide four days before infection (150 mg/kg) and again one day before infection (100 mg/kg). Animals were anaesthetised with isoflurane (3–5%), then inoculated intramuscularly with S. aureus ATCC 29213 (~1 × 10^5 CFU/mouse). […] Animals were sacrificed via CO2 asphyxiation at either 2 h (baseline), 26 and/or 50 h post-infection. Thigh tissues were harvested and homogenised in 3 mL sterile PBS (pH 7.4). Bacterial burdens were determined by performing 10-fold serial dilutions and plating on nutrient agar plates.

## Cc1c(CN(C)C(=O)/C=C/c2cnc3c(c2)N[C@H](C)[C@H](O)C(=O)N3)oc2ccccc12 [Debio 1453]
24 h
  reduction in thighs: > 1 log10CFU/mL
48 h
  reduction in thighs: > 2 log10CFU
20 µg/mL Debio 1453, 24h
  Mean Diff. 0h vs. treatment, log10 CFU: -1.552
20 µg/mL Debio 1453, 48h
  Mean Diff. 0h vs. treatment, log10 CFU: -2.396
40 µg/mL Debio 1453, 24h
  Mean Diff. 0h vs. treatment, log10 CFU: -0.054
40 µg/mL Debio 1453, 48h
  Mean Diff. 0h vs. treatment, log10 CFU: -1.464
60 µg/mL Debio 1453, 24h
  Mean Diff. 0h vs. treatment, log10 CFU: 1.22
60 µg/mL Debio 1453, 48h
  Mean Diff. 0h vs. treatment, log10 CFU: 1.476
80 µg/mL Debio 1453, 24h
  Mean Diff. 0h vs. treatment, log10 CFU: 1.132
80 µg/mL Debio 1453, 48h
  Mean Diff. 0h vs. treatment, log10 CFU: 2.658
160 µg/mL Debio 1453, 24h
  Mean Diff. 0h vs. treatment, log10 CFU: 1.558
160 µg/mL Debio 1453, 48h
  Mean Diff. 0h vs. treatment, log10 CFU: 2.682
